Measurements from ChEMBL document CHEMBL4813981, “Synthesis and in vitro antibacterial activity of new aminothiazole-oximepiperidone cephalosporins” (2021).

Experiments:
Assay type in all cases: functional
Acinetobacter baumannii [1] = test: Antibacterial activity against Carbapenem- resistant Acinetobacter baumannii 17-5 assessed as reduction in bacterial growth in the presence of Avibactam
Klebsiella aerogenes [2] = test: Antibacterial activity against Enterobacter aerogenes 15-5 assessed as reduction in bacterial growth
Escherichia coli [3] = test: Antibacterial activity against ESBLs positive Carbapenem-sensitive Escherichia coli 17-14 assessed as reduction in bacterial growth
Klebsiella pneumoniae [4] = test: Antibacterial activity against Carbapenem- sensitive Klebsiella pneumoniae 17-12 overexpressing extended spectrum beta-lactamases assessed as reduction in bacterial growth
Klebsiella pneumoniae [5] = test: Antibacterial activity against Carbapenem- resistant Klebsiella pneumoniae KR 15-12 assessed as reduction in bacterial growth
Klebsiella pneumoniae [6] = test: Antibacterial activity against Carbapenem- resistant Klebsiella pneumoniae KR 15-10 assessed as reduction in bacterial growth
Pseudomonas aeruginosa [7] = test: Bactericidal activity against Carbapenem- resistant Pseudomonas aeruginosa 17-1 assessed as reduction in bacterial growth in the presence of avibactam
Enterobacter cloacae [8] = test: Antibacterial activity against Enterobacter cloacae 17-10 assessed as reduction in bacterial growth
Pseudomonas aeruginosa [9] = test: Antibacterial activity against Carbapenem- sensitive Pseudomonas aeruginosa 17-7 assessed as reduction in bacterial growth
Klebsiella pneumoniae [10] = test: Antibacterial activity against Multidrug resistant Klebsiella pneumoniae KR 15-2 assessed as reduction in bacterial growth
Klebsiella pneumoniae [11] = test: Antibacterial activity against ESBLs negative Carbapenem-sensitive Klebsiella pneumoniae 17-18 assessed as reduction in bacterial growth
Klebsiella pneumoniae [12] = test: Antibacterial activity against Carbapenem- sensitive Klebsiella pneumoniae 17-9 overexpressing extended spectrum beta-lactamases assessed as reduction in bacterial growth
Enterobacter cloacae [13] = test: Bactericidal activity against Enterobacter cloacae 17-10 assessed as reduction in bacterial growth in the presence of avibactam
Klebsiella pneumoniae [14] = test: Antibacterial activity against Carbapenem- sensitive Klebsiella pneumoniae 17-4 overexpressing extended spectrum beta-lactamases assessed as reduction in bacterial growth
Klebsiella aerogenes [15] = test: Bactericidal activity against Enterobacter aerogenes 15-3 assessed as reduction in bacterial growth in the presence of avibactam
Pseudomonas aeruginosa [16] = test: Antibacterial activity against Carbapenem- resistant Pseudomonas aeruginosa 17-1 assessed as reduction in bacterial growth in the presence of Avibactam
Klebsiella aerogenes [17] = test: Antibacterial activity against Enterobacter aerogenes 17-4 assessed as reduction in bacterial growth
Klebsiella pneumoniae [18] = test: Antibacterial activity against Carbapenem- resistant Klebsiella pneumoniae KR 15-11 assessed as reduction in bacterial growth in the presence of Avibactam
Klebsiella pneumoniae [19] = test: Antibacterial activity against ESBLs positive Carbapenem-sensitive Klebsiella pneumoniae 17-1 assessed as reduction in bacterial growth in the presence of Avibactam
Klebsiella pneumoniae [20] = test: Antibacterial activity against Carbapenem- resistant Klebsiella pneumoniae KR 15-11 assessed as reduction in bacterial growth
Klebsiella pneumoniae [21] = test: Antibacterial activity against ESBLs negative Carbapenem-sensitive Klebsiella pneumoniae 17-18 assessed as reduction in bacterial growth in the presence of Avibactam
Escherichia coli [22] = test: Antibacterial activity against Escherichia coli ATCC 25922 assessed as reduction in bacterial growth in the presence of Avibactam
Klebsiella pneumoniae [23] = test: Antibacterial activity against Carbapenem- sensitive Klebsiella pneumoniae 17-13 overexpressing extended spectrum beta-lactamases assessed as reduction in bacterial growth
Klebsiella pneumoniae [24] = test: Bactericidal activity against Carbapenem- resistant Klebsiella pneumoniae KR 15-6 assessed as reduction in bacterial growth in the presence of avibactam
Klebsiella aerogenes [25] = test: Antibacterial activity against Enterobacter aerogenes 17-5 assessed as reduction in bacterial growth
Klebsiella pneumoniae [26] = test: Antibacterial activity against Carbapenem- sensitive Klebsiella pneumoniae 17-5 overexpressing extended spectrum beta-lactamases assessed as reduction in bacterial growth
Pseudomonas aeruginosa [27] = test: Antibacterial activity against Carbapenem- resistant Pseudomonas aeruginosa 17-1 assessed as reduction in bacterial growth
Acinetobacter baumannii [28] = test: Antibacterial activity against Carbapenem- resistant Acinetobacter baumannii 17-2 assessed as reduction in bacterial growth
Klebsiella pneumoniae [29] = test: Antibacterial activity against Carbapenem- resistant Klebsiella pneumoniae KR 15-7 assessed as reduction in bacterial growth in the presence of Avibactam
Klebsiella pneumoniae [30] = test: Antibacterial activity against Carbapenem- resistant Klebsiella pneumoniae KR 15-8 assessed as reduction in bacterial growth
Escherichia coli [31] = test: Antibacterial activity against ESBLs negative Carbapenem-sensitive Escherichia coli 17-1 assessed as reduction in bacterial growth
Klebsiella pneumoniae [32] = test: Antibacterial activity against ESBLs negative Carbapenem-sensitive Klebsiella pneumonia 15-2 assessed as reduction in bacterial growth
Klebsiella pneumoniae [33] = test: Antibacterial activity against Carbapenem- sensitive Klebsiella pneumoniae 17-6 overexpressing extended spectrum beta-lactamases assessed as reduction in bacterial growth
Escherichia coli [34] = test: Antibacterial activity against ESBLs negative Carbapenem-sensitive Escherichia coli 17-9 assessed as reduction in bacterial growth
Klebsiella aerogenes [35] = test: Antibacterial activity against Enterobacter aerogenes 15-3 assessed as reduction in bacterial growth
Klebsiella pneumoniae [36] = test: Antibacterial activity against Carbapenem- resistant Klebsiella pneumoniae KR 15-13 assessed as reduction in bacterial growth
Acinetobacter baumannii [37] = test: Antibacterial activity against Carbapenem- resistant Acinetobacter baumannii 17-12 assessed as reduction in bacterial growth
Enterobacter cloacae [38] = test: Antibacterial activity against Enterobacter cloacae 17-7 assessed as reduction in bacterial growth in the presence of Avibactam
Acinetobacter baumannii [39] = test: Antibacterial activity against Carbapenem- resistant Acinetobacter baumannii 17-8 assessed as reduction in bacterial growth
Escherichia coli [40] = test: Antibacterial activity against ESBLs positive Carbapenem-sensitive Escherichia coli 17-21 assessed as reduction in bacterial growth
Pseudomonas aeruginosa [41] = test: Antibacterial activity against Carbapenem- sensitive Pseudomonas aeruginosa 17-26 assessed as reduction in bacterial growth
Escherichia coli [42] = test: Antibacterial activity against ESBLs positive Carbapenem-sensitive Escherichia coli 17-17 assessed as reduction in bacterial growth
Escherichia coli [43] = test: Antibacterial activity against ESBLs positive Carbapenem-sensitive Escherichia coli 17-10 assessed as reduction in bacterial growth in the presence of Avibactam
Pseudomonas aeruginosa [44] = test: Antibacterial activity against Carbapenem- resistant Pseudomonas aeruginosa 17-5 assessed as reduction in bacterial growth
Acinetobacter baumannii [45] = test: Antibacterial activity against Acinetobacter baumannii NCTC 13304 assessed as reduction in bacterial growth
Klebsiella aerogenes [46] = test: Antibacterial activity against Enterobacter aerogenes 15-7 assessed as reduction in bacterial growth
Klebsiella pneumoniae [47] = test: Antibacterial activity against Carbapenem- sensitive Klebsiella pneumoniae 17-14 overexpressing extended spectrum beta-lactamases assessed as reduction in bacterial growth
Pseudomonas aeruginosa [48] = test: Antibacterial activity against Pseudomonas aeruginosa ATCC 27853 assessed as reduction in bacterial growth
Klebsiella aerogenes [49] = test: Antibacterial activity against Enterobacter aerogenes 17-3 assessed as reduction in bacterial growth
Enterobacter cloacae [50] = test: Antibacterial activity against Enterobacter cloacae 17-1 assessed as reduction in bacterial growth
Pseudomonas aeruginosa [51] = test: Bactericidal activity against carbapenem-sensitive Pseudomonas aeruginosa 17-7 assessed as reduction in bacterial growth
Acinetobacter baumannii [52] = test: Antibacterial activity against Carbapenem- resistant Acinetobacter baumannii 17-6 assessed as reduction in bacterial growth

CC(C)(O/N=C(\C(=O)N[C@@H]1C(=O)N2C(C(=O)[O-])=C(C[n+]3ccccc3)CS[C@H]12)c1csc(N)n1)C(=O)O [CEFTAZIDIME]
32 µg/mL: MIC (Pseudomonas aeruginosa [27]) | MIC (Escherichia coli [42])
64 µg/mL: MIC (Klebsiella pneumoniae [5]) | MIC (Klebsiella pneumoniae [12]) | MIC (Escherichia coli [31]) | MIC (Klebsiella pneumoniae [36]) | MIC (Acinetobacter baumannii [37]) | MIC (Pseudomonas aeruginosa [44]) | MIC (Acinetobacter baumannii [45])
0.125 µg/mL: MIC (Pseudomonas aeruginosa [9]) | MIC (Klebsiella pneumoniae [11]) | MIC (Klebsiella pneumoniae [21]) | MIC (Escherichia coli [22]) | MIC (Klebsiella pneumoniae [32])
1 µg/mL: MIC (Enterobacter cloacae [8]) | MBC (Enterobacter cloacae [13]) | MIC (Klebsiella pneumoniae [19]) | MIC (Klebsiella pneumoniae [26]) | MIC (Pseudomonas aeruginosa [41]) | MIC (Pseudomonas aeruginosa [48]) | MBC (Pseudomonas aeruginosa [51])
> 64 µg/mL: MIC (Klebsiella pneumoniae [6]) | MIC (Klebsiella pneumoniae [10]) | MIC (Klebsiella pneumoniae [14]) | MIC (Klebsiella pneumoniae [20]) | MIC (Acinetobacter baumannii [28]) | MIC (Klebsiella pneumoniae [30]) | MIC (Klebsiella aerogenes [35]) | MIC (Acinetobacter baumannii [39]) | MIC (Acinetobacter baumannii [52])
4 µg/mL: MIC (Klebsiella pneumoniae [4]) | MBC (Klebsiella aerogenes [15]) | MIC (Klebsiella pneumoniae [23])
0.5 µg/mL: MIC (Escherichia coli [34]) | MIC (Escherichia coli [43]) | MIC (Klebsiella aerogenes [49]) | MIC (Enterobacter cloacae [50])
2 µg/mL: MIC (Klebsiella pneumoniae [18]) | MBC (Klebsiella pneumoniae [24]) | MIC (Klebsiella pneumoniae [29]) | MIC (Enterobacter cloacae [38]) | MIC (Klebsiella pneumoniae [47])
8 µg/mL: MIC (Acinetobacter baumannii [1]) | MIC (Pseudomonas aeruginosa [16]) | MIC (Klebsiella aerogenes [17]) | MIC (Klebsiella pneumoniae [33]) | MIC (Escherichia coli [40])
16 µg/mL: MIC (Klebsiella aerogenes [2]) | MIC (Escherichia coli [3]) | MBC (Pseudomonas aeruginosa [7]) | MIC (Klebsiella aerogenes [25]) | MIC (Klebsiella aerogenes [46])

C[C@@H](O)[C@H]1C(=O)N2C(C(=O)O)=C(S[C@@H]3CN[C@H](C(=O)N(C)C)C3)[C@H](C)[C@H]12 [MEROPENEM]
16 µg/mL: MIC (Pseudomonas aeruginosa [27]) | MIC (Acinetobacter baumannii [37]) | MIC (Acinetobacter baumannii [45])
64 µg/mL: MIC (Acinetobacter baumannii [28]) | MIC (Klebsiella pneumoniae [36])
< 0.03 µg/mL: MIC (Escherichia coli [3]) | MIC (Klebsiella pneumoniae [4]) | MIC (Enterobacter cloacae [8]) | MIC (Klebsiella pneumoniae [11]) | MIC (Klebsiella pneumoniae [23]) | MIC (Klebsiella pneumoniae [26]) | MIC (Escherichia coli [31]) | MIC (Klebsiella pneumoniae [32]) | MIC (Klebsiella pneumoniae [33]) | MIC (Escherichia coli [34]) | MIC (Escherichia coli [40]) | MIC (Escherichia coli [42]) | MIC (Klebsiella aerogenes [49]) | MIC (Enterobacter cloacae [50])
0.06 µg/mL: MIC (Pseudomonas aeruginosa [9]) | MIC (Klebsiella pneumoniae [12]) | MIC (Klebsiella pneumoniae [14])
1 µg/mL: MIC (Pseudomonas aeruginosa [41]) | MIC (Klebsiella pneumoniae [47]) | MIC (Pseudomonas aeruginosa [48])
> 64 µg/mL: MIC (Klebsiella pneumoniae [6]) | MIC (Klebsiella pneumoniae [30])
4 µg/mL: MIC (Klebsiella aerogenes [35])
0.125 µg/mL: MIC (Klebsiella aerogenes [2]) | MIC (Klebsiella aerogenes [17]) | MIC (Klebsiella aerogenes [25]) | MIC (Klebsiella aerogenes [46])
32 µg/mL: MIC (Klebsiella pneumoniae [5]) | MIC (Klebsiella pneumoniae [20]) | MIC (Acinetobacter baumannii [39]) | MIC (Pseudomonas aeruginosa [44]) | MIC (Acinetobacter baumannii [52])
